In brackets after ≈: the same amount, converted by molar mass. Where two headings read alike, the source gives them in different places.
Columns and labels:
[1] = Treatment of dog wound; type: in vivo; details: rear leg
Source text: Dog was occasionally limping and favoring his rear leg. A 2-inch diameter area of raw red moist skin was observed where hair had fallen out. Upon close inspection a 1,½ inch suppurating cut was observed which created a dark line leading to a 1 cm×2 cm section of blackened skin. Dog had been topically treated with Triamcinolone Acetonide and bandaged previously to no effect.
The ratio was 1:1. At the second and third interval Neosporin™ was mixed in hand with other compositions in a 1:1:1 ratio. Dog was not observed to lick wound.

[2] = tested on: human cells; details: Ingram et al 2004; cited from earlier work
[3] = Topical treatment of psoriasis, divided elbow, one subject; type: in vivo, human; details: for Result after 3 days treated twice daily: elbow section
Source text: Background: A subject suffered from Psoriasis diagnosed […]. They have not undergone treatment for their condition since 1996. They report rash after bathing that turns to white plaques with scaling within days. Treatment 1: […] They then distributed the combination to the entire affected right lateral section of their elbow. Treatment 2: […] They then distributed the combination to the entire affected outside lateral section. Treatment 3: […] They then distributed the combination to the entire affected interior lateral section.

[4] = tested on: onychomycosis; fungal infections of the skin and nails; experiment: Azole antifungals tested on fungal infections of skin and nails; set-up: species or system human; details: in vivo
[5] = type: in vivo, human
Source text: Compositions were topically applied to various skin and nail conditions. […] The solution was applied by dropper to affected areas, or combined with a bioactive agent and then applied to the affected area or applied sequentially to the affected area at least once daily, preferably twice daily during treatment period. […] Background: A subject was diagnosed with Dyshidrosis in March of 2012. Symptoms included small blisters on the palms of their hands and the underside of their fingers with scaling. […] They abandoned the treatment. Symptoms continued. They occasionally self-treated the condition with over the counter Lamisil. […] Treatment: […]

[6] = tested on: Candida albicans; details: at 0.5%
[7] = tested on: Trichophyton mentagrophytes ATCC MYA 4439; experiment: MIC study in broth culture, sodium chlorite and itraconazole; type: cell-based; details: for MIC: Trichophyton mentagrophytes, read-out: amount of Itraconazole required to inhibit the fungus (MIC)
[8] = tested on: Candidia albicans
Description: An in vitro determination of the use of sodium chlorite on human tissue culture and broth culture of Candidia albicans was performed.

[9] = Topical treatment of psoriasis on chin and face; type: in vivo, human; details: three days twice daily
Description: Patient was treated on the chin for three days twice daily. On their right side of the chin, sodium chlorite solution was applied alone.
They applied SC combined with CCT's herbal treatment to their right side of their chin. SC+ a composition containing 3.66 g thymol, 3.66 g menthol, 3.66 g menthyl acetate in 100 ml grapeseed oil with 0.25 ounce beeswax.

[10] = tested on: Trichophyton rubrum ATCC MYA 4438; experiment: MIC study in broth culture, sodium chlorite and itraconazole; type: cell-based; details: for MIC: Trichophyton rubrum, read-out: amount of Itraconazole required to inhibit the fungus (MIC)
Description: As shown in the examples, in vitro data was generated and the minimum inhibitory concentrations (MIC) tests were determined in broth culture using ATCC MYA 4438. Itraconazole is the azole used in the study. […] On the X-axis are dilutions of itraconazole. Fungal Growth is noted by a + and lack of growth by a −.
Referring to FIG. 18, the experiments were repeated with the strain Trichophyton rubrum.

[11] = tested on: dermataphytes that cause tinea pedis and onychomycosis

With `CC1(C)O[C@@H]2C[C@H]3[C@@H]4CCC5=CC(=O)C=C[C@]5(C)[C@@]4(F)[C@@H](O)C[C@]3(C)[C@]2(C(=O)CO)O1` [Triamcinolone Acetonide] the wound outcome [1] was “no effect”.
For chlorite ions, the “concentration shown to be non-toxic to human cells” value [2] is given as 100 ppm.
In the case of `N#C/C(=C1/SC[C@@H](c2ccc(Cl)cc2Cl)S1)n1ccnc1` [1% Luliconazole cream, luliconazole], the “psoriasis symptoms one day later” value ([3]; Treatment 2, elbow section) is reported as “White dry scales were perceived though the rash was less apparent”, the “Result after 3 days treated twice daily” value [3] is reported as “Red Rash and scaling” and the “Result after 3 days treated twice daily” value ([3]; listed as Luliconazole) is reported as “red rash and plaques were present”.
With `CC(=O)N1CCN(c2ccc(OCC3COC(Cn4ccnc4)(c4ccc(Cl)cc4Cl)O3)cc2)CC1` (stereo not shown) [Ketaconazole] the “effectiveness against fungal infection of nails/skin” value [4] was “excellent results”.
In the case of `C=C1CCN([C@H](C)[C@](O)(Cn2cncn2)c2ccc(F)cc2F)CC1` [10% efinaconazole, efinaconazole], the “Result after 3 days treated twice daily” value [3] is reported as “Rash and white scaling” and the “Result after 3 days treated twice daily” value ([3]; listed as efinaconazole) is reported as “white dry scales and evidence of rash”.
For `Clc1ccccc1C(c1ccccc1)(c1ccccc1)n1ccnc1` [1% Clotrimazole cream, Clotrimazole], the “psoriasis symptoms two days later” value ([3]; Treatment 3, elbow section) was “White dry scales were not perceived and the rash was less apparent” and the “Result after 3 days treated twice daily” value [3] was “plaques are not present”.
In the case of `CN(C/C=C/C#CC(C)(C)C)Cc1cccc2ccccc12` [Lamisil], the “local tolerance of earlier treatment” value ([5]; human, in vivo) is reported as “stinging” and the “result of earlier treatment of the subject's Dyshidrosis” value ([5]; subject's history before the study) is reported as “no significant amelioration of symptoms”.
With sodium chlorite the “effect on Candida albicans on agar plates” value [6] was “kills Candida albicans rather than simply inhibiting its growth”, the “drop of sodium chlorite's MIC” value ([7]; combined with itraconazole) was “two-fold” and the Candidia albicans killing ([8]; 0.5% sodium chlorite in culture broth) was “effective in killing”. For the same compound, the Candidia albicans killing ([8]; 0.5% sodium chlorite in culture broth, listed as Sodium Chlorite) was “Yes”, the Candidia albicans killing ([8]; 2.0% sodium chlorite in culture broth) was “effective in killing” and the Candidia albicans killing ([8]; 2.0% sodium chlorite in culture broth, listed as Sodium Chlorite) was “Yes”. For the same compound, the “toxicity against Candidas albicans” value ([8]; at 0.5%) was 100%, the “regrowth of Candidia albicans” value ([8]; continued culture without sodium chlorite) was “did not result in regrowth” and the “side by side comparison with standard antifungal agent in vitro” value ([8]; versus fluconazole) was “significantly superior results compared to fluconazole”. For the same compound, the “recurrence of psoriasis symptoms in treated area of chin, 92 days later” value [9] was “no recurrence of psoriasis symptoms”, the “drop of sodium chlorite's MIC” value ([10]; combined with itraconazole) was “eight-fold” and the “effective concentration when combined with azole antifungals” value ([11]; combined with antifungals in the azole group) was no less than 0.015%. The “effective concentrations alone against dermataphytes” value ([11]; sodium chlorite alone, broth culture and in vivo) was 0.25-4%.
For `CCC(C)n1ncn(-c2ccc(N3CCN(c4ccc(OCC5COC(Cn6cncn6)(c6ccc(Cl)cc6Cl)O5)cc4)CC3)cc2)c1=O` (stereo not shown) [Itraconazole, itraconazole], the MIC ([7]; combined with sodium chlorite) was less than 0.03 µg/mL, the MIC ([7]; itraconazole alone) was 0.125 µg/mL (≈ 0.177 µM) and the “decrease of itraconazole MIC” value ([7]; combined with sodium chlorite) was “at least 4 fold”. The MIC ([10]; combined with sodium chlorite) was less than 0.03 µg/mL, the MIC ([10]; itraconazole alone) was 0.06 µg/mL (≈ 0.085 µM) and the “decrease of itraconazole MIC” value ([10]; combined with sodium chlorite) was “at least 2 fold”.
